What follows are molecules tested on Aβ release from human cell lines (H4, HEK293) stably overexpressing human APP695 with Swedish double mutation (assay: Determination of the inhibition of A-beta release in cell culture (IGEN analyzer detection)). Details: H4/HEK293 cells overexpressing human APP695 Swedish mutant; supernatant analyzed after 16 h; 0.5% DMSO.
Assay type: cell-based
Excerpt: Determination of the Inhibition of A-Beta Release in Cell Culture
In order to be able to measure the inhibition of Aβ release, human cell lines (H4, HEK293) which stably overexpress the 695 amino acid-long, neuronal splice variant of human APP were generated. In order to increase the generated Aβ amount further, in addition a “Swedish” familiar Alzheimer's double mutation in which the lysine and methionine residues respectively at positions 595 and 596 of the molecule APP695 are replaced by the amino acids asparagine and leucine was introduced. The cells were cultivated in Dulbecco's modified Eagles medium (DMEM, with 4500 mg/l glucose; 110 mg/l sodium pyruvate); 5% by volume fetal calf serum (FCS); 1% nonessential amino acids) to which the geniticin G418 selection marker had been added [all cell culture methods were carried out by standard methods; Sambrook, J., Fritsch, E. F., and Maniatis, T. (1989), Molecular cloning: A laboratory manual. Cold Spring Harbour Laboratory Press]. In order to test the effect of substances on the inhibition of APP processing, about 20 000 cells were diluted in a 96 multititer plate. The next day, the culture medium was removed and replaced by biotin- and serum-free medium, in which the substances were diluted to reach a concentration of 10 μM with a dimethyl sulfoxide (DMSO) content of 0.5%. 0.5% DMSO served as control. For substances showing inhibition of the Aβ generation, additionally dose-effect relations were investigated by using different concentrations. After 16 h, the supernatant was removed and analyzed.
b) Detection of Aβ with the IGEN Analyzer
The total amount of Aβ was detected using the following components: 50 μl of cell culture supernatant were mixed with 25 μl of biotinylated antibody 4G8 (recognizes amino acid 17-25 of Aβ), 25 μl of ruthenium complex-labeled antibody 6E10 (recognizes the N terminus of Aβ) and 50 μl of magnetic streptavidin-coupled beads. Aβ40 was detected by using the following components: 50 μl of cell culture supernatant were mixed with 25 μl of biotinylated antibody G2-10 (recognizes the C terminus of Aβ40), 25 μl of ruthenium complex-labeled antibody W02 (recognizes the N terminus of Aβ), and 50 μl of magnetic streptavidin-coupled beads. In parallel, serial dilutions were made with synthetic A040. The samples were shaken at room temperature and then measured using an IGEN analyzer. Typically, each sample was measured three times in at least two independent experiments. The antibodies and solutions used were prepared according to the instructions of the manufacturer of the analyzer, IGEN, Inc. (Gaitersburg, Md., USA). The measurement was likewise carried out as stated by the manufacturer.

| Compound | IC50 [nM] |
| --- | --- |
| C[C@H](COC(=O)N1CCC(O)CC1)[C@@H](c1cc(F)ccc1F)S(=O)(=O)c1ccc(Cl)cc1 (single isomer, unassigned) [Example 43] | 10 to 100 |
| C[C@H](COC(=O)N1CCC(CCO)CC1)[C@@H](c1cc(F)ccc1F)S(=O)(=O)c1ccc(Cl)cc1 (single isomer, unassigned) [Example 42] | 10 to 100 |
| CC(COC(=O)N1CCNC(=O)C1)C(c1cc(F)ccc1F)S(=O)(=O)c1ccc(Br)cc1 (single isomer, unassigned) [Example 100] | 10 to 100 |
| C[C@H](COC(=O)N1CCN(C)CC1)[C@@H](c1cc(F)ccc1F)S(=O)(=O)c1ccc(Cl)cc1 (single isomer, unassigned) [Example 95] | 10 to 100 |
